Reference: patent US20250082656A1, “DOSAGE REGIMENS FOR TREATMENT OF DENGUE INFECTION” (Atea Pharmaceuticals, Inc., priority 2022, published 2025)

What was measured:
[1] = Multiple-dose tolerability and steady state exposure, mice; format: in vivo, CD-1 mice
Procedure: There were no adverse clinical signs observed in the mice so the multiple doses of the prodrug were well-tolerated.
Separately, two mouse studies with multiple dosing were conducted. First, 9 naïve CD-1 mice were administered Compound 1 (AT-281) in 100 mM citrate buffer, pH 4.5 by oral gavage at 500 mg/kg for the first dose and, 4 h later, 250 mg/kg for the second dose. Blood samples were collected, 3 animals per time point, at 4 (before the second dosing), 8 and 16 h post the first dose, and PBMCs isolated. Secondly, 9 naïve CD-1 mice were administered Compound 1 (AT-281) by oral gavage at 1000 mg/kg for the first dose, and then 4 h later, they were given twice daily doses 12 hours apart for 3 consecutive days at 500 mg/kg. Blood samples were collected, 3 animals per time point, at 16 (received one 500 mg/kg dose), 40 (received three 500 mg/kg doses) and 76 h post first dose (received six 500 mg/kg doses), and PBMCs were isolated.
(§1) Pharmacokinetic measurements for FIGS. 11, 12, 13, 14, and 15 were analyzed using LC-MS/MS according to the protocol described herein. Plasma samples were prepared for MS analysis by adding internal standards and extracting with 20 volumes chilled ACN. After vortex (800 rpm for 10 min) and centrifugation (4,000 rpm, 15 min, 4° C.), the supernatants (25 μL) were diluted with an equal volume of H2O, mixed and spun again. After adding internal standards, the PBMC samples (10^6 cells) were lyzed with 300 μL MeOH/H2O (70:30, v/v) and 40 mM dibutylammonium acetate (DBAA), mixed by vortex and centrifuged (12,000 rpm, 15 min, 4° C.). Aliquots of the supernatants (35 μL) were dried under nitrogen and reconstituted in H2O, then mixed and spun again. […] A binary nonlinear gradient with mobile phases A (0.1% formic acid in water) and B (0.1% formic acid in ACN) were used to elute samples at 0.8 mL/min, with a run time of 5 min. […] A binary nonlinear gradient with mobile phases A (0.001% NHr H2O, 0.18 mM DBAA in H2O) and B (10 mM N,N-dimethyl-hexylamine, 3 mM NH4OAc in ACN/H2O (50.50, v/v)) were used to elute samples at 0.5 mL/min, with a run time of 3 min. Standards in 50% MeOH were used for calibration. […] Internal standards (ISS) as described previously (Good et al., Preclinical evaluation of AT-527, a novel guanosine nucleotide prodrug with potent, pan-genotypic activity against hepatitis C virus. PLos One 15:e02271045) were used to correct for variations in recovery.

[2] = Plasma PK after single oral dose of AT-752, monkeys; format: in vivo, cynomolgus monkeys; settings: Monkey, single oral AT-752 300 mg/kg, plasma
Procedure: Male cynomolgus monkeys were administered 300 mg/kg Compound 2 (AT-752). Blood samples were collected up to 24 hrs. post dose, plasma separated and analyzed for Compound 1 (AT-281), Compound 3 (AT-551), and Compound 6 (AT-273) by LC-MS/MS. Data are express as mean+/−SD (n=3-5/time point). The x-axis is time post the dose measured in hours and the y-axis is the plasma concentration of the metabolites measured in nanomoles/mL). The experimental procedure is provided in Example 14.
Male non-naïve cynomolgus monkeys (Hainan Jingang Laboratory Animal Co. Ltd., China), at least 2 kg body weight, were individually housed during the study in stainless steel mesh cages, provided ad libitum access to RO water, fed twice daily (except on the day of dosing when they were fed once) with ˜60 g Certified Monkey Diet each feed (Beijing Vital Keao Feed Co., Ltd., Beijing, China) and given daily treats of fresh fruit. They (n=5) were administered a dose of Compound 2 (AT-752) at 300 mg/kg in 40% PEG400, 10% solutol HS15, 50% 100 mM citrate buffer, pH 4.5 (v/v) by oral gavage, and blood samples (˜0.5 mL) were collected at 1, 2, 4, 8, 12 and 24 h post dose. Plasma was separated at each time point for pharmacokinetics, and stored at −70° C. […] Separately, three monkeys were given an oral dose of Compound 2 (AT-752) as powder in capsules at 60 mg/kg ([…] (AT-281) equivalent dose of 55 mg/kg), and blood samples collected at 12, 24 and 48 h post dose.
as §1
(§2) Data analysis of the pharmacokinetic data generated according to Example 21 and presented in FIGS. 11, 12, 13, 14, and 15 was analyzed according to the procedure described herein. Plasma concentrations of Compound 1 (AT-281), Compound 3 (AT-551) and Compound 6 (AT-273) were subjected to non-compartmental pharmacokinetic analysis using Phoenix WinNonlin software (version 6.3 or above, Pharsight, Mountain View, CA). The linear/log trapezoidal rule was applied in obtaining the PK parameters.

[3] = Plasma PK after single oral dose of AT-752, mice; settings: Mouse, single oral AT-752 420 mg/kg
[4] = Pharmacokinetic study in SAD cohorts; format: in vivo, human; settings: for AUCInf / Cmax / T1/2 / Tmax: human plasma; for CLR: human
Procedure: as §1, §2

[5] = 1000 mg/kg loading then 500 mg/kg twice a day for 3 days, 12 h after the sixth 500 mg/kg dose
[6] = 1000 mg/kg loading then 500 mg/kg twice a day, 12 h after the first 500 mg/kg dose
[7] = single oral Compound 2 250 mg, fasting
[8] = single oral Compound 2 500 mg, fasting
[9] = single oral Compound 2 500 mg, fed
[10] = single oral Compound 2 1000 mg, South/Southeast/East Asian origin
[11] = single oral Compound 2 1000 mg, fasting
[12] = single oral Compound 2 1500 mg, fasting

C[C@@]1(F)[C@H](O)[C@@H](COP(=O)(O)OP(=O)(O)OP(=O)(O)O)O[C@H]1n1cnc2c(=O)[nH]c(N)nc21 [Compound 5]
concentration of AT-9010 in pooled PBMCs [1, 5]: 0.575 pmol/10^6 cells
concentration of AT-9010 in pooled PBMCs [1, 6]: 0.421 pmol/10^6 cells

C[C@@]1(F)[C@H](O)[C@@H](CO)O[C@H]1n1cnc2c(=O)[nH]c(N)nc21 [Compound 6, 2′-fluoro-2′-C-methylguanosine]
AUC0-24 h [2]: 7.8 ± 2.4 nmol·h/mL
Cmax [2]: 800 ± 200 nM
plasma concentration [1, 5]: 1.35 ± 0.86 nmol/mL
plasma concentration [1, 6]: 0.67 ± 0.12 nmol/mL
AUC0-24 h [3]: 18.8 ± 6.0 nmol·h/mL
Cmax [3]: 2300 ± 700 nM
dose proportionality of plasma exposure ([4]; dose range 250 to 1500 mg): slightly less than dose-proportional
Urine Elimination ([4]; following single oral administration of Compound 2 at 250 to 1500 mg): 6.7-8.8%
AUCInf [4, 7]: 1440 ± 280 ng·h/mL
Cmax [4, 7]: 91 ± 19 ng/mL
T1/2 [4, 7]: 19.1 ± 10.2 h
Tmax [4, 7]: 6.0 (3.0-6.0) h
AUCInf [4, 8]: 2390 ± 478 ng·h/mL
Cmax [4, 8]: 135 ± 25 ng/mL
T1/2 [4, 8]: 13.9 ± 5.9 h
Tmax [4, 8]: 4.0 (3.0-8.0) h
AUCInf [4, 9]: 2990 ± 558 ng·h/mL
T1/2 [4, 9]: 17.3 ± 11.0 h
Tmax [4, 9]: 6.0 (6.0-8.1) h
Cmax ([4]; single oral Compound 2 500 mg, fed (high-fat/high-calorie meal)): 175 ± 29 ng/mL
AUCInf [4, 10]: 3830 ± 519 ng·h/mL
T1/2 [4, 10]: 16.3 ± 3.0 h
Tmax [4, 10]: 5.0 (3.1-6.0) h
AUCInf [4, 11]: 4350 ± 1520 ng·h/mL
Cmax [4, 11]: 241 ± 71 ng/mL
T1/2 [4, 11]: 26.2 ± 12.2 h
Tmax [4, 11]: 4.1 (4.0-6.3) h
Cmax ([4]; single oral Compound 2 1000 mg, patients of South/Southeast/East Asian origin): 240 ± 46 ng/mL
AUCInf [4, 12]: 5460 ± 1190 ng·h/mL
Cmax [4, 12]: 283 ± 32 ng/mL
T1/2 [4, 12]: 21.7 ± 6.2 h
Tmax [4, 12]: 6.0 (3.2-6.1) h
CLR [4, 7]: 15.8 ± 2.8 L/h
CLR [4, 8]: 16.8 ± 7.6 L/h
CLR [4, 9]: 13.4 ± 3.3 L/h
CLR [4, 10]: 18.7 ± 2.1 L/h
CLR [4, 11]: 17.1 ± 6.5 L/h
CLR [4, 12]: 19.5 ± 4.1 L/h
